Data as given in article PMC6494845 (Scientific Reports, 2019).
Where “and” joins values, the source holds several entries; their conditions need not be identical. Identical values can stand only once. Like-named read-outs stand apart in the source and are kept apart here. One block for each molecule: values may come before it.

How the values were obtained:
[1] = target: Aβ plaques (Homo sapiens, UniProt P05067); assay: Fluorescent staining of Aβ plaques in mouse brain sections; design: species or system double transgenic mouse (Tg APP/PS-1)
Chain of Aβ plaques (P05067 672-711 limits assumed): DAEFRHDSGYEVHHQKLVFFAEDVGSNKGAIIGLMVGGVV
Procedure: Fluorescent staining of Aβ plaques by 2 was performed using the brain sections from a double transgenic mouse (Tg APP/PS-1). Localization of the Aβ plaques was confirmed by immunofluorescent staining the adjacent brain sections from the transgenic mouse with an anti-Aβ antibody (Fig. 6). The Aβ plaques in the cerebral cortex and hippocampus regions of the transgenic mouse brain sections were stained with 2 (Fig. 6a–c). The staining pattern was consistent with that observed with an Aβ-specific antibody (Fig. 6d–f).
Figure 6 A double transgenic mouse brain section (a–c) and an age-matched wild-type mouse brain section (g–i) stained with 2. The adjacent double transgenic mouse brain section (d–f) and age-matched wild-type mouse brain section (j–l) stained with an Aβ-specific antibody. Magnification of the regions in white boxes (c,f,i and l). Scale bars: 100 μm (c,f,i and l) and 200 μm (the rest).
A double transgenic mouse (APP/PS1, male, 18 months old) was transcardially perfused with PBS, followed by 10% neutral buffered formalin (NBF) under anesthesia. The brain was then immediately removed from skull and post-fixed in 10% NBF for 24 h. The hippocampus and cerebral cortex regions were sliced using brain matrix, embedded in paraffin, and sectioned serially into 4 μm thickness. Brain sections from an age-matched wild-type mouse (male) were obtained as described above. […]

[2] = Excitation and emission spectra; assay type: physicochemical; conditions: methanol, 2.5 μM
Procedure: Despite this, ligand 2 has sufficient red-shifted emission for optical imaging.
Ligand 2 was dissolved in methanol (2.5 μM), and its excitation and emission spectra were obtained using a Mithras[2] LB 943 monochromator multimode microplate reader (Berthold Technologies, Bad Wildbad, Germany).

[3] = Metabolism study of 2 (TLC with fluorescence detection of brain homogenates); assay type: in vivo, Balb/C nude mice
Procedure: In order to further investigate the metabolites of [^18F]2, metabolism study of 2 was also performed; the brain homogenates were analyzed by TLC, followed by fluorescence detection.
After ex vivo optical imaging, the brain tissues were homogenized in 1 mL of acetonitrile and centrifuged. The supernatants were analyzed by TLC using a 4:1 mixture of ethyl acetate–hexane as the developing solvents, and the TLC plates were subjected to optical imaging for 1 sec (excitation, 570 nm; emission, 660 nm).

[4] = target: T1, Aβ(1–42) aggregates (Homo sapiens, UniProt P05067); assay: In vitro binding assay using Aβ(1–42) aggregates (intrinsic fluorescence of the ligands); conditions: Aβ(1–42) aggregates 1 μM, PBS, 37 °C, 1 h, ligand fluorescence
T1 construct: β-Amyloid(1–42) peptide was purchased from Bachem; purchased Bachem (Torrance, CA, USA)
T1 sequence (P05067 672-713): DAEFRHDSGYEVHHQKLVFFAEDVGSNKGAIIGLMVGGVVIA
Procedure: Binding constants of the ligands for Aβ(1–42) aggregates were determined using the intrinsic fluorescence of the ligands. The binding constant of CRANAD-2 was also measured for comparison. […] Considering the Kd values and feasibility of ^18F-labeling of all the ligands, ligand 2 was selected for further in vitro and in vivo studies.
Aβ(1–42) aggregates were prepared as described in the literature. Briefly, Aβ(1–42) peptide (200 μM) was dissolved in PBS and stirred gently at 37 °C for 2 d. The Aβ(1–42) aggregate formation was confirmed by thioflavin-T fluorescence assay. In vitro binding assays were carried out using the methods described in the literature with some modifications. Various concentrations of ligands (10–400 nM) were dissolved in DMSO, which were then added to PBS solutions of Aβ(1–42) aggregates (1 μM) charged in 96-well black clear-bottom plates. The final concentration of DMSO in a total volume of solution was 1%. Non-specific binding was determined in the absence of Aβ(1–42) aggregates. The reaction mixtures were incubated at 37 °C for 1 h, after which the fluorescence spectra of the ligands were obtained (excitation 510–560 nm and emission 590–660 nm) using a monochromator multimode microplate reader. All experiments were performed in triplicate. Kd values were determined using GraphPad Prism software 5.

[5] = Metabolism study of [^18F]2 (radio-TLC of brain homogenates and blood); assay type: in vivo, ICR mice; conditions: brain homogenate, 2 min after injection
Procedure: However, the radioligand disappeared almost entirely, and the new polar radioactive peaks appeared at the origin of radio-TLC at 30 and 60 min after injection (82% and 100%, respectively; Fig. 9c,d). The radioligand also disappeared in the blood samples, but at a rate slower than that of the brain samples (Fig. 9f–h). The polar radioactive products were further analyzed by radio-TLC using a polar developing solvent system, and the polar products moved toward the solvent front. […] Moreover, the polar products were not adsorbed onto calcium phosphate (7% in calcium phosphate pellet vs. 93% in supernatant), which is a component of the bone matrix.
Figure 9 Radio-TLC analysis of the brain homogenates and blood samples obtained at 2, 30, and 60 min after injection of [^18F]2 into ICR mice. […] The 60-min samples (d and h) were further analyzed by radio-TLC using a 1:1:0.01 mixture of dichloromethane–methanol–triethylamine as the developing solvents (e and i). TLC analysis followed by fluorescence detection of the brain homogenates obtained at 2, 30, and 60 min after injection of 2 into Balb/C nude mice (j). […]
[^18F]2 (19.6 MBq) dissolved in 10% ethanol–saline was injected into ICR mice via a tail vein. […] The supernatants were analyzed by radio-TLC using a 4:1 mixture of ethyl acetate–hexane or a 1:1:0.01 mixture of dichloromethane–methanol–triethylamine as the developing solvents.

[6] = In vitro stability in PBS and FBS (radio-TLC); assay type: in vitro ADME; conditions: for remaining at 2 h: 37 °C, 120 min, radio-TLC, read-out: % remaining radioligand
Procedure: Stability study was performed by incubating [^18F]2 in phosphate-buffered saline (PBS) and in fetal bovine serum (FBS) at 37 °C for 120 min.
Data are presented as % remaining radioligand.
[^18F]2 (21.5 MBq) was dissolved in a minimal volume of 10% ethanol–saline and incubated with PBS or 50% FBS (Gibco, Brooklyn, NY, USA) at 37 °C for 120 min. Aliquots were taken from the incubation solution after 0, 2, 30, 60, and 120 min. The aliquots were analyzed using a radio-TLC scanner.

[7] = Partition coefficient measurement (1-octanol/water); assay type: physicochemical; conditions: 1-octanol and water
Procedure: Difluoroboron complex formation lowered the lipophilicity of the curcumin derivative based on TLC analysis.
Partition coefficient of [^18F]2 was measured according to the method described in the literature. [^18F]2 was dissolved in 1-octanol (1 mL) and diluted with water (1 mL). The solution was vortexed vigorously for 5 min and then centrifuged. The 1-octanol and aqueous layers were separated out, and a 500-μL aliquot of each layer was removed and measured using a gamma counter. Samples from the 1-octanol and aqueous layers were repartitioned until consistent values were obtained. The log P is expressed as the logarithm of the ratio of the counts per minute of 1-octanol versus that of water.

[8] = Biodistribution study; assay type: in vivo; conditions: ICR mice, i.v.
Procedure: However, there was poor brain uptake at 2 min after injection with increased uptake over time, as follows: 0.49 ± 0.02% ID/g at 2 min, 1.02 ± 0.08% ID/g at 30 min, and 1.19 ± 0.06% ID/g at 60 min (Table 1).
ICR mice (male, 7-week-old, four mice per time point) were injected with [^18F]2 (1.85 MBq) dissolved in 10% ethanol–saline via a tail vein. Mice were sacrificed at the indicated time points (2, 30, and 60 min). Samples of blood and major tissues (heart, lung, liver, spleen, kidney, intestines, muscle, femur, and brain) were removed, weighed, and counted in a Wizard[2] automatic gamma counter (PerkinElmer, Waltham, MA, USA). Data are expressed as the percent injected dose per gram of tissue (% ID/g).

[9] = system: HIV-1 protease; design: method as in PMID 8087563; conditions: cited from earlier work
[10] = target: Aβ(1–40) aggregates; design: method as in PMID 19807070; conditions: cited from earlier work
[11] = design: method as in PMID 19807070; conditions: cited from earlier work
[12] = design: method as in PMID 19807070; conditions: cited from earlier work; remark: listed apart in the source

Compound: CN(C)c1ccc(/C=C/C2=[O+][B-](F)(F)OC(/C=C/c3ccc(OCCOCCF)cc3)=C2)cc1 [Ligand 2, BF2 complex of 4′-dimethylamino-4″-(2-(2-fluoroethoxy)ethoxy)curcuminoid]
staining of Aβ plaques ([1]; Tg APP/PS-1 mouse brain sections, cerebral cortex and hippocampus, 100 μM, 10 min): stained
staining of brain sections ([1]; age-matched wild-type mouse brain sections): no notable positive staining
emission [2]: 650 nm
excitation [2]: 550 nm
fluorescent spot of 2 on TLC of brain homogenate ([3]; 2-min sample): a fluorescent spot was detected
fluorescent spot of 2 on TLC of brain homogenate ([3]; 30- and 60-min samples): did not appear
Kd [4]: 0.0197 µM

Compound: COc1cc(/C=C/C2=CC(/C=C/c3ccc(O)c(OC)c3)=[O+][B-](F)(F)O2)ccc1O [difluoroboron-curcumin]
IC50 [9]: 24 µM

Compound: CN(C)c1ccc(/C=C/C2=CC(/C=C/c3ccc(N(C)C)cc3)=[O+][B-](F)(F)O2)cc1 [CRANAD-2]
Kd [10]: 0.0387 µM and 0.038 µM
blue shift when binding to the Aβ aggregates [11]: 90 nm
emission ([11]; in methanol): 760 nm
Kd [4]: 0.0194 µM
stability in serum [12]: stability in the serum

Compound: CNc1ccc(/C=C/C2=[O+][B-](F)(F)OC(/C=C/c3ccc(OCCOCCF)cc3)=C2)cc1 [Ligand 1, BF2 complex of 4′-monomethylamino-4″-(2-(2-fluoroethoxy)ethoxy)curcuminoid]
Kd [4]: 0.0338 µM

More lines, now with the values ahead:

Kd [4]: 0.139 µM
Compound: COc1cc(/C=C/C2=[O+][B-](F)(F)OC(/C=C/c3ccc(OCCOCCF)c(OC)c3)=C2)ccc1O [Ligand 3, BF2 complex of 4′-(2-(2-fluoroethoxy)ethoxy)curcuminoid]

[^18F]2 remaining in the brain [5]: 84%
remaining at 120 min ([6]; bovine, PBS and fetal bovine serum (50%), both PBS and FBS, read-out: % remaining radioligand (stable in both PBS and FBS)): > 83%
remaining at 2 h ([6]; bovine, fetal bovine serum (50%), FBS (50% FBS in method)): 83%
remaining at 2 h ([6]; phosphate-buffered saline, PBS): 89%
logP [7]: 2.58 ± 0.04
Biodistribution, Blood ([8]; 2 min): 1.49 ± 0.12 % ID/g
Biodistribution, Brain ([8]; 2 min): 0.49 ± 0.02 % ID/g
Biodistribution, Femur ([8]; 2 min): 0.58 ± 0.10 % ID/g
Biodistribution, Heart ([8]; 2 min): 2.20 ± 0.57 % ID/g
Biodistribution, Kidney ([8]; 2 min): 3.25 ± 0.48 % ID/g
Biodistribution, Large intestine ([8]; 2 min): 0.24 ± 0.05 % ID/g
Biodistribution, Liver ([8]; 2 min): 26.92 ± 1.58 % ID/g
Biodistribution, Lung ([8]; 2 min): 3.56 ± 0.25 % ID/g
Biodistribution, Muscle ([8]; 2 min): 0.49 ± 0.19 % ID/g
Biodistribution, Small intestine ([8]; 2 min): 0.92 ± 0.13 % ID/g
Biodistribution, Spleen ([8]; 2 min): 12.59 ± 2.42 % ID/g
Biodistribution, Blood ([8]; 30 min): 2.50 ± 0.22 % ID/g
Biodistribution, Brain ([8]; 30 min): 1.02 ± 0.08 % ID/g
Biodistribution, Femur ([8]; 30 min): 0.91 ± 0.13 % ID/g
Biodistribution, Heart ([8]; 30 min): 1.93 ± 0.19 % ID/g
Biodistribution, Kidney ([8]; 30 min): 4.11 ± 0.46 % ID/g
Biodistribution, Large intestine ([8]; 30 min): 0.95 ± 0.11 % ID/g
Biodistribution, Liver ([8]; 30 min): 14.21 ± 1.39 % ID/g
Biodistribution, Lung ([8]; 30 min): 2.62 ± 0.29 % ID/g
Biodistribution, Muscle ([8]; 30 min): 0.97 ± 0.11 % ID/g
Biodistribution, Small intestine ([8]; 30 min): 6.47 ± 1.63 % ID/g
Biodistribution, Spleen ([8]; 30 min): 11.66 ± 2.70 % ID/g
Biodistribution, Blood ([8]; 60 min): 3.46 ± 0.81 % ID/g
Biodistribution, Brain ([8]; 60 min): 1.19 ± 0.06 % ID/g
Biodistribution, Femur ([8]; 60 min): 1.43 ± 0.14 % ID/g
Biodistribution, Heart ([8]; 60 min): 1.87 ± 0.20 % ID/g
Biodistribution, Kidney ([8]; 60 min): 2.58 ± 0.15 % ID/g
Biodistribution, Large intestine ([8]; 60 min): 2.16 ± 0.42 % ID/g
Biodistribution, Liver ([8]; 60 min): 9.36 ± 0.18 % ID/g
Biodistribution, Lung ([8]; 60 min): 2.34 ± 0.50 % ID/g
Biodistribution, Muscle ([8]; 60 min): 0.87 ± 0.05 % ID/g
Biodistribution, Small intestine ([8]; 60 min): 14.92 ± 4.06 % ID/g
Biodistribution, Spleen ([8]; 60 min): 10.72 ± 2.45 % ID/g
Compound: CN(C)c1ccc(/C=C/C2=[O+][B-](F)(F)OC(/C=C/c3ccc(OCCOCC[18F])cc3)=C2)cc1 [[^18F]2]

Kd [4]: 0.0154 µM
Compound: CN(C)c1ccc(/C=C/C2=[O+][B-](F)(F)OC(/C=C/c3ccc(OCC(O)CF)cc3)=C2)cc1 (stereo not drawn) [Ligand 4, BF2 complex of 4′-dimethylamino-4″-(3-fluoro-2-hydroxypropoxy)curcuminoid]
